Laboratory results: PubChem BioAssay (NCI)
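Five concentrations, 48 hours, 96-well plates. The concentration for 50% growth inhibition is given as GI50. At the TGI there is no net growth.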

Legend:
Experiment in all cases: inhibition of tumour cell growth, NCI panel, 48 h
[1] = tested on: 786-0 renal
[2] = tested on: A498 renal
[3] = tested on: A549 NSCLC
[4] = tested on: ACHN renal
[5] = tested on: BT-549 breast
[6] = tested on: CAKI-1 renal
[7] = tested on: COLO 205 colon
[8] = tested on: DU-145 prostate
[9] = tested on: EKVX NSCLC
[10] = tested on: HCC-2998 colon
[11] = tested on: HCT-116 colon
[12] = tested on: HCT-15 colon
[13] = tested on: HOP-62 NSCLC
[14] = tested on: HOP-92 NSCLC
[15] = tested on: HS 578T breast
[16] = tested on: HT29 colon
[17] = tested on: IGROV1 ovarian
[18] = tested on: K-562 leukemia
[19] = tested on: KM12 colon
[20] = tested on: LOX IMVI melanoma
[21] = tested on: M14 melanoma
[22] = tested on: MALME-3M melanoma
[23] = tested on: MCF7 breast
[24] = tested on: MDA-MB-231 breast
[25] = tested on: MDA-MB-435
[26] = tested on: MOLT-4 leukemia
[27] = tested on: NCI-H226 lung
[28] = tested on: NCI-H23 lung
[29] = tested on: NCI-H460 lung
[30] = tested on: NCI-H522 lung
[31] = tested on: NCI/ADR-RES ovarian
[32] = tested on: OVCAR-3 ovarian
[33] = tested on: OVCAR-4 ovarian
[34] = tested on: OVCAR-5 ovarian
[35] = tested on: OVCAR-8 ovarian
[36] = tested on: PC-3 prostate
[37] = tested on: RPMI-8226 leukemia
[38] = tested on: RXF 393 renal
[39] = tested on: SF-268 CNS
[40] = tested on: SF-295 CNS
[41] = tested on: SF-539 CNS
[42] = tested on: SK-MEL-2 melanoma
[43] = tested on: SK-MEL-28 melanoma
[44] = tested on: SK-MEL-5 melanoma
[45] = tested on: SK-OV-3 ovarian
[46] = tested on: SN12C renal
[47] = tested on: SNB-19 CNS
[48] = tested on: SR leukemia
[49] = tested on: SW-620 colon
[50] = tested on: T-47D breast
[51] = tested on: TK-10 renal
[52] = tested on: U251 CNS
[53] = tested on: UACC-257 melanoma
[54] = tested on: UACC-62 melanoma
[55] = tested on: UO-31 renal

Nc1nc(SCc2ccccc2)nc2[nH]ncc12
GI50 [1]: 18.7 µM
TGI [1]: 36 µM
GI50 [2]: 10 µM
TGI [2]: 22.2 µM
GI50 [3]: 13.6 µM
TGI [3]: 29.1 µM
GI50 [4]: 15.5 µM
TGI [4]: 31.6 µM
GI50 [5]: 17.3 µM
TGI [5]: 35.1 µM
GI50 [6]: 15.2 µM
TGI [6]: 28.8 µM
GI50 [7]: 17.1 µM
TGI [7]: 53.6 µM
GI50 [8]: 21.2 µM
TGI [8]: 55.4 µM
GI50 [9]: 16.1 µM
TGI [9]: 35.8 µM
GI50 [10]: 19.6 µM
TGI [10]: 34.4 µM
GI50 [11]: 13.2 µM
TGI [11]: 26.3 µM
GI50 [12]: 20.4 µM
TGI [12]: > 100 µM
GI50 [13]: 18.7 µM
TGI [13]: 33.4 µM
GI50 [14]: 2.54 µM
TGI [14]: 11.7 µM
GI50 [15]: 14.3 µM
TGI [15]: 34.5 µM
GI50 [16]: 17.1 µM
TGI [16]: 49.3 µM
GI50 [17]: 19.4 µM
TGI [17]: 41.8 µM
GI50 [18]: 14.3 µM
TGI [18]: > 100 µM
GI50 [19]: 14.1 µM
TGI [19]: 28.4 µM
GI50 [20]: 20.8 µM
TGI [20]: 58.2 µM
GI50 [21]: 19.4 µM
TGI [21]: 34.8 µM
GI50 [22]: 11.7 µM
TGI [22]: 24.3 µM
GI50 [23]: 11.8 µM
TGI [23]: 26.6 µM
GI50 [24]: 16.4 µM
TGI [24]: 31.7 µM
GI50 [25]: 15.8 µM
TGI [25]: 29.9 µM
GI50 [26]: 25.7 µM
TGI [26]: > 100 µM
GI50 [27]: 13.4 µM
TGI [27]: 27.4 µM
GI50 [28]: 12.6 µM
TGI [28]: 25.8 µM
GI50 [29]: 12.3 µM
TGI [29]: 29.4 µM
GI50 [30]: 17.9 µM
TGI [30]: 46 µM
GI50 [31]: 12.3 µM
TGI [31]: 27.8 µM
GI50 [32]: 12.6 µM
TGI [32]: 25.7 µM
GI50 [33]: 12.2 µM
TGI [33]: 37.1 µM
GI50 [34]: 17.6 µM
TGI [34]: 31.7 µM
GI50 [35]: 25.9 µM
TGI [35]: > 100 µM
GI50 [36]: 13.7 µM
TGI [36]: 28.7 µM
GI50 [37]: 7.76 µM
TGI [37]: 46 µM
GI50 [38]: 3.62 µM
TGI [38]: 11.5 µM
GI50 [39]: 20.5 µM
TGI [39]: 69.2 µM
GI50 [40]: 14.8 µM
TGI [40]: 29 µM
GI50 [41]: 19 µM
TGI [41]: 41.7 µM
GI50 [42]: 20.7 µM
TGI [42]: 48.9 µM
GI50 [43]: 17.1 µM
TGI [43]: 35.9 µM
GI50 [44]: 12 µM
TGI [44]: 25.1 µM
GI50 [45]: 20 µM
TGI [45]: 39.1 µM
GI50 [46]: 16.9 µM
TGI [46]: 31.3 µM
GI50 [47]: 19.8 µM
TGI [47]: 42.4 µM
GI50 [48]: 18 µM
TGI [48]: 51.1 µM
GI50 [49]: 17.9 µM
TGI [49]: 37.6 µM
GI50 [50]: 4.15 µM
TGI [50]: 15.6 µM
GI50 [51]: 10 µM
TGI [51]: 21.9 µM
GI50 [52]: 14.9 µM
TGI [52]: 33.6 µM
GI50 [53]: 14.6 µM
TGI [53]: 28.1 µM
GI50 [54]: 14.4 µM
TGI [54]: 27.9 µM
GI50 [55]: 18 µM
TGI [55]: 38.4 µM
